Reference: patent publication US11801232B2, “Targeting of ARID1A-deficient cancers by inhibiting de novo pyrimidine synthesis pathway” (YALE UNIVERSITY, priority 2019, dated 2023)

Key:
[1] = tested on: ARID1A-restoration OVISE cells (ARID1A Dox); test: Cytotoxicity (SRB) assay with CalcuSyn combination analysis; type: cell-based; settings: Homo sapiens, Table 3, single drug, read-out: Dm
Procedure: (§1) Short Hairpin RNA (shRNA)-Mediated Knockdown and Expression of ARID1A in ovarian and endometrial carcinoma cells. shRNA lentiviral supernatants were produced using standard protocols, as previously described^8. Vectors were transfected into HEK293FT cells using X-tremeGENE 9 DNA Transfection Reagent (from Roche). Retroviral supernatants isolated at 48 h were diluted 1:1 in culture medium and used to infect ARID1A-wildtype ES2 and KLE cell lines. Stably transfected subclones were expanded using puromycin (from Dot Scientific) drug selection. For expression of ARID1A in the ARID1A-mutant HEC-1-A cell line, pCIN4-HA-ARID1A was transfected using X-tremeGENE 9 DNA Transfection Reagent (from Roche), followed by selection with G418 (from Gibco). For expression of ARID1A in the ARID1A-mutant SKOV3 and OVISE cell lines, V5/His-tagged pLenti-puro-LacZ and pLenti-puro-ARID1A were transfected using lentivirus. Lentivirus was produced using HEK293FT cells with the second-generation packaging system pSPAX2 (Addgene plasmid) and pMD2.G (Addgene plasmid). Stably transfected subclones were expanded using puromycin and blasticidin (Gibco) drug selection.
(§2) Cytotoxicity assay. Cells were seeded in 96-well plates, with 2000 cells in 100 μL/well, and cultured for 24 h. The cells were treated with serial dilutions of drugs or without drug for an additional 72 h. Cell number was determined using a sulforhodamine B (SRB) assay, as previously described^23. Briefly, cells were fixed with 20% trichloroacetic acid (TCA), air-dried, and stained with 0.4% SRB dissolved in 1% acetic acid. After washing, protein-bound dye was solubilized with 10 mM unbuffered Tris-base solution (pH 10.5) and detected at 510 nm using a microplate reader. Percentage of cell-growth was calculated using the following formula: % cell growth=[(Absorbance sample)/(Absorbance untreated)]×100
(§3) Using CalcuSyn software (Biosoft), dose-effect curves were generated, and drug concentrations corresponding to a 50% decrease in cell number (IC50) were determined.
(§4) CIwt<0.8, =0.8 to 1.2, and >1.2 indicates synergism, an additive effect, and antagonism, respectively. A CIwt value was assigned as follows: (ED50+2ED75+3ED90)/6. Datasets from at least three independent experiments were combined, and means±SD were calculated for each combination. Teri, teriflunomide. N/A, not applicable. Statistical analysis was carried out by one-way ANOVA with Bonferroni's post-hoc test, and differences were considered significant at ***P<0.001 as compared to the ARID1A restoration group induced by doxycycline with the same drug treatment.

[2] = tested on: OVISE cells, ARID1A (not induced); test: as above; type: cell-based; settings: Homo sapiens, Table 3, single drug, read-out: Dm
Procedure: as §1, §2, §3, §4

[3] = tested on: OVISE cells, LacZ Dox; test: as above; type: cell-based; settings: Homo sapiens, Table 3, single drug, read-out: Dm
Procedure: as §1, §2, §3, §4

[4] = tested on: OVISE cells, LacZ; test: as above; type: cell-based; settings: Homo sapiens, Table 3, single drug, read-out: Dm
Procedure: as §1, §2, §3, §4

[5] = tested on: P-CHK1 Ser345; test: Immunoblot of phosphorylated CHK1 in ES2 cell lysates; type: cell-based, human; settings: ES2 cells; teriflunomide 15 μM, AZD6738 1.5 μM
Procedure: Immunoblot Analysis and Co-Immunoprecipitation Assay. For immunoblotting experiments, cells were lysed in BC200 lysis buffer [20 mM Tris-HCl (pH 7.5), 200 mM NaCl, 1 mM EDTA, 0.2% Nonidet P-40 (NP-40), freshly added complete protease inhibitor cocktail (from Roche), and PhosSTOP phosphatase inhibitor (from Roche)] or in boiling SDS lysis buffer [1% SDS and 10 mM Tris-CI (pH 7.5)], as previously described^21. Protein concentrations were quantified using a modified Lowry assay, and equal protein amounts were loaded onto a 10% SDS-PAGE gel and separated by gel electrophoresis, followed by transfer to a nitrocellulose membrane. The nitrocellulose membrane was stained with Ponceau S to confirm equal protein loading and then blocked in 2% BSA in Tris-buffered saline with 0.1% Tween-20 (tris buffered saline with tween, or TBST). Primary antibody incubation was done for 2 h at room temperature or, for phospho-specific antibodies, overnight at 4° C. An HRP-conjugated secondary antibody was used, followed by detection using enhanced chemiluminescence substrate (from Pierce). Autoradiograph images were scanned and saved as unmodified TIFF images, and densitometry analysis was done with ImageJ (from NIH) software.

[6] = tested on: ES2-shARID1A xenografts; settings: mouse, in vivo, ip, 4 mg/kg
Procedure: Animal Model. All animal procedures were conducted in accordance with a protocol approved by the Institutional Animal Care and Use Committee at Yale University.
Three mouse experiments were performed: (i) to assess an effect of teriflunomide on ES2 cells in vivo, (ii) to assess an effect of teriflunomide on SKOV3 cells in vivo, and (iii) to assess a combination effect of teriflunomide and AZD6738 on ES2-shARID1A cells in vivo. All experiments were performed using subcutaneous cell-xenograft models generated by injecting cells into the flanks of 6-week-old female athymic NCr-nu/nu mice (Charles River Laboratories).
Animal-human dose translation was calculated as previously described^24. Tumor volumes were measured every other day by caliper to determine tumor volume using the formula (length/2)×(width^2). […] Experiments were terminated when mean tumor volume of a vehicle ES2-shCon group reached 1000 mm^3. Tumor xenografts were excised at time of euthanasia. Representative samples were flash-frozen in liquid nitrogen for subsequent protein expression analysis by immunoblotting, as well as being formalin-fixed paraffin-embedded (alternatively, FFPE) for subsequent hematoxylin and eosin staining and immunohistochemical analysis. FFPE sections were reviewed by a pathologist (alternatively, P.H.), and cellular necrosis was quantified as % cross-sectional area of bisected tumor xenografts. […]

| Compound | IC50 [1] [µM] | IC50 [2] [µM] | IC50 [3] [µM] | IC50 [4] [µM] | Phosphorylation of CHK1 on serine 345 [5] | Weight loss or toxicity in mice [6] |
| --- | --- | --- | --- | --- | --- | --- |
| C[C@@H]1COCCN1c1cc(C2([S@](C)(=N)=O)CC2)nc(-c2cc[nH]c3nccc2-3)n1 [AZD6738] | 6.99 ± 0.34 | 0.77 ± 0.16 | 0.67 ± 0.11 | 0.7 ± 0.03 | decreased levels | – |
| C/C(O)=C(\C#N)C(=O)Nc1ccc(C(F)(F)F)cc1 [Teriflunomide, teriflunomide] | 109 ± 3.18 | 19.1 ± 1.07 | 19.3 ± 1.24 | 18.2 ± 1.19 | – | no significant weight loss or toxicity |
